Measured values taken from patent US6468537B1, “Localization of major peptide autoepitopes for nucleosome specific T cells of systemic lupus erythematosus” (The Board of Trustees of Northwestern University, priority 1999, dated 2002).

Experiments:
SNF1 mice = assay: Acceleration of SLE-associated nephritis by immunization with eluted peptides in adjuvant; type: in vivo, mouse
From the text: The animals received three more injections at two weeks interval with 50 micrograms of either an eluted peptide or the control peptide absorbed on alum (Pierce Chemical Co., Rockford, Ill.).

[1] = system: Th clones 1D12, 5E9, 3F6, 1G1; assay: Helper assay: Th clones co-cultured with splenic B cells from SNF1 mice in presence of peptide; type: cell-based, mouse; details: responder Th clones 5E9 and 3F6
Method: IgG autoantibodies to ssDNA, dsDNA, histones, and nucleosomes were quantitated using an ELISA as described previously (Mohan, et al., 1995, J. Immunol., 154:1470-1480; Mohan, et al., 1993, J. Exp. Med. 177:1367-1381; Burlingame, et al., 1993, J. Clin. Invest. 91:1687-1696; Losman, et al., 1992, J. Immunol., 148:1561-1569). Sera were diluted 1:100 and heat-inactivated before use. Serum from normal BALB/c mice were used as negative control. Anti-DNA mAbs 564 and 205 were used to generate standard curves (Adams, et al., 1991, Proc. Natl. Acad. Sci. USA 88:11281-11275; Mohan, et al., 1995, J. Immunol., 154:1470-1480; Mohan, et al., 1993, J. Exp. Med. 177:1367-1381; Sainis and Datta, 1988, J. Immunol. 140:2215-2224). For IgG autoantibodies to ssDNA, histones and nucleosomes, 1 unit per milliliter was considered to be equivalent to the activity of one microgram per milliliter of mAb 564, which recognizes all three autoantigens (Mohan, et al., 1995, J. Immunol., 154:1470-1480; Mohan, et al., 1993, J. Exp. Med. 177:1367-1381), and for IgG anti-dsDNA, 1 unit per milliliter was equivalent to the binding of 0.6 micrograms per milliliter of the mAb 205.
After seven days of co-culture, the supernatants were assayed for IgG antibodies to the autoantigens (ds-DNA, ss-DNA, nucleosome, and histone) by ELISA. […]

[2] = system: pathogenic Th clones from SNF1 mice; assay: Stimulation of nucleosome-specific pathogenic Th clones from SNF1 mice by eluted/synthetic peptides; type: cell-based, mouse; details: A20 or splenic B+Mφ as APC
Method: Fresh splenic, CD4^+ T cells (5×10^5/well) were co-cultured in triplicate wells at an initial concentration of 5×10^5 cells per well, with 10^6 cells per well of either irradiated B+Mφ or mitomycin-C treated A20 APC. Varying concentrations of either control or test peptides were added and the cultures were adjusted to 200 microliters final volume of HL-1 serum-free medium (Hycor Biomedical Inc., Irvine, Calif.) cultures were incubated for 96 hours in flat bottom 96-well plates, and at 18 hours prior to harvesting the cells, 1 microcurie of 3H-Thymidine was added to each well. The incorporated radioactivity was measured by scintillation counting. The Stimulation Index (SI) was calculated by dividing the mean counts per minute (cpm) incorporated in co-cultures of T cells and APC with test peptide by the mean cpm incorporated in control peptide co-cultures. In the case of cytokine assays, experiments were carried out as described for the proliferation assays except that the culture supernatants were removed from duplicate co-culture wells after 24-46 hours of incubation and cytokine assays were performed.
An aliquot of 50 microliters from each HPLC fraction was assayed for stimulating ability as described above. Four characterized Th clones were used as indicators of cytokine secretion (IL-2 and/or IL-4) in response to the peptide fractions, using A20 or splenic B+Mψ as APCs (Adams, et al., 1991, Proc. Natl. Acad. Sci. USA 88:11271-11275; Shi, et al., 1998, J. Exp. Med. 187:367-378). […] Only two out of one hundred fractions tested were able to stimulate Th cell clones. […] The latter was further separated as described, and tested for active fractions of HPLC purified peptides.. Three naturally processed and presented, stimulatory epitopes were identified using these procedures. The sequences of the peptides are as follows: SQKEEEEGAQREKE (EP-1, SEQ ID NO: 23); DWMEEEHGAQREKE (EP-2, SEQ ID NO: 24); and […] (EP-3, or H522-42, SEQ ID NO: 25). The first two peptides were homologous to sequences in a transcription factor, BRN-3, which is identical in chicken, mice and humans (GenBank). […] EP-1 is highly homologous to EP-2, but it also matched a sequence in cytomegalovirus envelope protein at aa position 57-70. Most likely these peptides are derived from some transcription factor in the chromatin that was incubated with the APC. The third sequence (EP-3) was derived from histone H5 (aa position 22-42) in chicken nucleosome, which is homologous to histone H1 sequence of mice and humans at amino acid position 22-42 ([…], SEQ ID NO:26). […] Therefore, the mouse H122-42 is the autoantigenic peptide in mice and is also referred to herein as EP-3. Nested sequences and unrelated sequences that were obtained in the active fractions from the eluates were also synthesized and re-tested.

Sequence: STDHPKYSDMIVAAIQAEKNR (Histone fragment) [H122-42]
- development of severe nephritis (SNF1 mice; by 28 weeks of age): all the EP-3 immunized mice developed severe nephritis
- onset/rate of disease relative to control group (CFA alone or OVA peptide in CFA) (SNF1 mice; immunization from 12 weeks): developed severe nephritis earlier
- time to severe nephritis in some immunized animals (SNF1 mice; just after the first booster immunization): 2-3 weeks
- mice succumbed to severe lupus nephritis (SNF1 mice; within four weeks of the first injection, peptide in CFA): Eighty percent
- augmentation of autoantibody-inducing help [1]: almost as much as the whole nucleosome
- stimulation of pathogenic Th clones [2]: equivalent to the chicken H52242 peptide
- stimulation of pathogenic Th clones ([2]; listed as EP-3): stimulatory
